According to patent publication US10065990B2, “Cyclic peptide compound, and preparation method, pharmaceutical composition and use thereof” (HANGZHOU GUANYU BIO-MEDICAL CO., LTD, priority 2013, dated 2018):

Key:
HDAC7 = biological target: T1, HDAC7 (Homo sapiens, UniProt Q8WUI4); assay: HDAC biochemical activity measurement (fluorescent substrate deacetylation);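 further: fluorogenic deacetylation assay using acetyl-lysine substrate at 20 µM, enzyme and compound incubated 30 min at 37 °C, then developer added, fluorescence read at 360/460 nm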; conditions: HDAC7; 37° C. 30 minutes
T1 sequence (Q8WUI4 1-952): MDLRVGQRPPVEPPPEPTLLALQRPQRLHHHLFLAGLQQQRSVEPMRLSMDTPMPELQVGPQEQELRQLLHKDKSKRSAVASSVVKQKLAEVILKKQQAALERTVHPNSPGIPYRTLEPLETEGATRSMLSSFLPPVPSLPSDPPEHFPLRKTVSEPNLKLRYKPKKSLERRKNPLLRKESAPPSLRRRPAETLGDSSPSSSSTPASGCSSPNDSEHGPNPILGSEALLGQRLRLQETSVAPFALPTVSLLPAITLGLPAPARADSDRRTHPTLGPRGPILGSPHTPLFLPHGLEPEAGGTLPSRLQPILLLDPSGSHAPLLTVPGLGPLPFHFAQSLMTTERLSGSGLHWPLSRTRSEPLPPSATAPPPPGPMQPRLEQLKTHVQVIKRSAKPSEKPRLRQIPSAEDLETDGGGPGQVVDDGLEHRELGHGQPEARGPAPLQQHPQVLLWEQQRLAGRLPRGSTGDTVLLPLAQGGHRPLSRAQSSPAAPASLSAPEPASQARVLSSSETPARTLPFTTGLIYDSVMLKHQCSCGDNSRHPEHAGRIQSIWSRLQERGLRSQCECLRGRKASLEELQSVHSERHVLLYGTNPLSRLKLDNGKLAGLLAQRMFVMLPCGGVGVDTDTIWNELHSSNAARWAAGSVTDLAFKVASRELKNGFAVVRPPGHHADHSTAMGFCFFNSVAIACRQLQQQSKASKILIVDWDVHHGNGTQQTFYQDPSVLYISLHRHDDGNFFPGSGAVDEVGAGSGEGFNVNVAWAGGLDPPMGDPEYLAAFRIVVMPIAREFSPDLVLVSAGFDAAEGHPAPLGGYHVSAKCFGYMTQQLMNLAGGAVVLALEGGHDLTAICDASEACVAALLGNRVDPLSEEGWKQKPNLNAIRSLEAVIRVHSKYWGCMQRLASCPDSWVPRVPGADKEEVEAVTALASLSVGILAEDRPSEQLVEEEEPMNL

[1] = system: A549 (human lung cancer cells); assay: MTT cancer cell growth inhibition; format: cell-based; conditions: Homo sapiens, A549, 72 h, MTT, 72 hours incubation; read-out: GI50 A54
Excerpt: (§1) MTT assay principle is yellow MTT can penetrate membrane into the cell, succinic dehydrogenase of the mitochondria in living cells can make exogenous MTT reduction of insoluble in water of blue-violet acicular formazan for crystallization and deposition in the cell, crystallization can be dissolved dimethyl sulfoxide (DMSO) solution, detected its absorbance at 490 nm/570 nm wavelength by enzyme-linked immunosorbent assay, which can reflect the number of cells.
(§2) Using DMEM+10% FBS culture medium or using 1640+10% FBS culture, respectively.
(§3) a) Cells were seeded in 96-well plates with the inoculation of 1500/well, 190 μl/hole, 37° C., 5% of CO2 incubator overnight;
(§4) b) The next day each well was added 10 μl of different drugs. The final concentration of drug was 10^−5˜10^−10M, three parallel holes; 37° C., 5% CO2 culture incubator for 72 hours incubation;
(§5) c) Per well was added 20 μl 5 mg/ml of MTT, 37° C., 5% CO2 culture incubator for 4 hours incubation;
(§6) d) The supernatant was discarded. Each well was added 100 μl of DMSO and oscillation;
(§7) e) 570 nm readings. Calculate cell viability. GI50 calculation based on the results.

[2] = system: BGC-823 (human gastric cancer cells); assay: MTT cancer cell growth inhibition; format: cell-based; conditions: Homo sapiens, BGC-823, 72 h, MTT, 72 hours incubation; read-out: GI50 BG
Excerpt: as §1, §2, §3, §4, §5, §6, §7

[3] = system: Bel-7402 (human hepatoma cells); assay: MTT cancer cell growth inhibition; format: cell-based; conditions: Homo sapiens, Bel-7402, 72 h, MTT, 72 hours incubation, Bel-7402 cells; read-out: GI50 Bel-7402
Excerpt: as §1, §2, §3, §4, §5, §6, §7

[4] = system: DU145 (human prostate cancer cells); assay: MTT cancer cell growth inhibition; format: cell-based; conditions: Homo sapiens, DU-145, 72 h, MTT, 72 hours incubation; read-out: GI50 Du1
Excerpt: as §1, §2, §3, §4, §5, §6, §7

[5] = system: H1975 (non-small cell lung adenocarcinoma); assay: MTT cancer cell growth inhibition; format: cell-based; conditions: Homo sapiens, NCI-H1975, 72 h, MTT, 72 hours incubation, H1975 cells; read-out: GI50 H1975
Excerpt: as §1, §2, §3, §4, §5, §6, §7

[6] = system: HCC827 (human non-small cell lung cancer cells); assay: MTT cancer cell growth inhibition; format: cell-based; conditions: Homo sapiens, HCC827, 72 h, MTT, 72 hours incubation, HCC827 cells; read-out: GI50 HCC827
Excerpt: as §1, §2, §3, §4, §5, §6, §7

[7] = system: HT1080 (human fibrosarcoma cells); assay: MTT cancer cell growth inhibition; format: cell-based; conditions: Homo sapiens, HT-1080, 72 h, MTT, 72 hours incubation; read-out: GI50 HT1
Excerpt: as §1, §2, §3, §4, §5, §6, §7

[8] = system: Hela (human cervical cancer cells); assay: MTT cancer cell growth inhibition; format: cell-based; conditions: Homo sapiens, HeLa, 72 h, MTT, 72 hours incubation; read-out: GI50 Hela
Excerpt: as §1, §2, §3, §4, §5, §6, §7

[9] = system: Huh-7 (human hepatoma cells); assay: MTT cancer cell growth inhibition; format: cell-based; conditions: Homo sapiens, Huh-7, 72 h, MTT, 72 hours incubation, Huh-7 cells; read-out: GI50 Huh-7
Excerpt: as §1, §2, §3, §4, §5, §6, §7

[10] = system: K562 (human leukemia cells); assay: MTT cancer cell growth inhibition; format: cell-based; conditions: Homo sapiens, K562, 72 h, MTT, 72 hours incubation, K562 cells; read-out: GI50 K562
Excerpt: as §1, §2, §3, §4, §5, §6, §7

[11] = system: KBM-5 (human chronic myelogenous leukemia); assay: MTT cancer cell growth inhibition; format: cell-based; conditions: Homo sapiens, KBM5, 72 h, MTT, 72 hours incubation, KBM-5 cells; read-out: GI50 KBM-5
Excerpt: as §1, §2, §3, §4, §5, §6, §7

[12] = system: KBM5-T315I (human chronic myelogenous leukemia); assay: MTT cancer cell growth inhibition; format: cell-based; conditions: Homo sapiens, 72 h, MTT, 72 hours incubation, KBM5-T315I cells; read-out: GI50 KBM5-T315I
Excerpt: as §1, §2, §3, §4, §5, §6, §7

[13] = system: MCF-7 (human breast cancer cells); assay: MTT cancer cell growth inhibition; format: cell-based; conditions: Homo sapiens, MCF7, 72 h, 72 hours incubation, read-out: GI50 MCF
Excerpt: as §1, §2, §3, §4, §5, §6, §7

[14] = system: MDA-MB-231 (breast cancer cells); assay: MTT cancer cell growth inhibition; format: cell-based; conditions: Homo sapiens, MDA-MB-231, 72 h, read-out: GI50 MDA-MB-231, MTT, 72 hours incubation, MDA-MB-231 cells
Excerpt: as §1, §2, §3, §4, §5, §6, §7

[15] = system: MOLT-4 (human acute lymphoblastic leukemia cells); assay: MTT cancer cell growth inhibition; format: cell-based; conditions: Homo sapiens, MOLT-4, 72 h, MTT, 72 hours incubation; read-out: GI50 Mol
Excerpt: as §1, §2, §3, §4, §5, §6, §7

[16] = system: N-87 (human gastric cancer cells); assay: MTT cancer cell growth inhibition; format: cell-based; conditions: Homo sapiens, 72 h, MTT, 72 hours incubation, N-87 cells; read-out: GI50 N-87
Excerpt: as §1, §2, §3, §4, §5, §6, §7

[17] = system: PANC-1 (Pac-1, human pancreatic cancer cells); assay: MTT cancer cell growth inhibition; format: cell-based; conditions: Homo sapiens, PANC-1, 72 h, MTT, 72 hours incubation; read-out: GI50 PAN
Excerpt: as §1, §2, §3, §4, §5, §6, §7

[18] = system: SGC-7901 (human gastric cancer cells); assay: MTT cancer cell growth inhibition; format: cell-based; conditions: Homo sapiens, SGC-7901, 72 h, MTT, 72 hours incubation, SGC-7901 cells; read-out: GI50 SGC-7901
Excerpt: as §1, §2, §3, §4, §5, §6, §7

[19] = system: U937 (human leukemia cells); assay: MTT cancer cell growth inhibition; format: cell-based; conditions: Homo sapiens, U-937, 72 h, MTT, 72 hours incubation; read-out: GI50 U93
Excerpt: as §1, §2, §3, §4, §5, §6, §7

[20] = system: lncap (prostate cancer cells); assay: MTT cancer cell growth inhibition; format: cell-based; conditions: Homo sapiens, LNCaP, 72 h, MTT, 72 hours incubation; read-out: GI50 lnca
Excerpt: as §1, §2, §3, §4, §5, §6, §7

| IC50 HDAC7 (HDAC7) | GI50 [1] | GI50 [2] | GI50 [3] | GI50 [4] | GI50 [5] | GI50 [6] | GI50 [7] | GI50 [8] | GI50 [9] | GI50 [10] | GI50 [11] | GI50 [12] | GI50 [13] | GI50 [14] | GI50 [15] | GI50 [16] | GI50 [17] | GI50 [18] | GI50 [19] | SMILES | other results |
| --- | --- | --- | --- | --- | --- | --- | --- | --- | --- | --- | --- | --- | --- | --- | --- | --- | --- | --- | --- | --- | --- |
| no activity | 30 nM | 100 nM | 79 nM | 60 nM | 63 nM | 21 nM | 50 nM | 130 nM | 42 nM | 39 nM | 31 nM | 33 nM | 80 nM | 31 nM | 50 nM | 55 nM | 30 nM | 44 nM | 70 nM | C=C1NC(=O)c2nc(ccc2F)CNC(=O)C[C@@H](/C=C/CCS)OC(=O)[C@H](C)NC1=O [Compound 140] | GI50 [20]: 20 nM |
| no activity | 80 nM | 80 nM | 42 nM | 70 nM | 49 nM | 73 nM | 90 nM | 60 nM | 75 nM | 53 nM | 36 nM | 34 nM | 70 nM | 25 nM | 90 nM | 32 nM | 80 nM | 63 nM | 80 nM | C/C=C1\NC(=O)c2nccc(n2)CNC(=O)C[C@@H](/C=C/CCS)OC(=O)[C@H](C(C)C)NC1=O [Compound 143] | GI50 [20]: 60 nM |
